This assay deals with MDA-MB-468 breast. Put plainly: growth of human tumour cells (NCI), 48 h.

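Assay format: 96-well plates, 48-hour exposure. GI50 is the concentration that inhibits growth by half. TGI marks complete inhibition of growth.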 Bounds are passed on as bounds.

As for `CCCCCCCCO/N=C\c1c2c(O)c3c(O)c(C)c4c(c3c1O)C(=O)C(C)(O/C=C\C(OC)C(C)C(OC(C)=O)C(C)C(O)C(C)C(O)C(C)/C=C\C=C(\C)C(=O)N2)O4` (stereo not given), the GI50 was 1.37 µM and the TGI came out at 5.11 µM.
Turning to `O=C(/C=C/c1ccc2c(c1)OCO2)c1ccccc1`, the GI50 is 13.9 µM and the TGI was determined as 28 µM.
The corresponding values for `CC1=C([Se]CC(OC(=O)[C@@H](CSSC(C)(C)C)NC(=O)C(C)(C)C)C(=O)NCCCCCC(=O)OCc2ccccc2)C(=O)c2ccccc2C1=O` (stereo not given in full) are 2.19 µM and 4.35 µM.
On to `CS(=O)(=O)Nc1cc(-c2ccc3ncc(C#N)c(NCc4ccccc4)c3c2)cnc1Cl`, for which the GI50 is 0.0819 µM and the TGI amounted to 0.896 µM.
Turning to `O=C(Nc1nc(-c2ccc(Cl)cc2)cs1)c1ccc(O)c(O)c1`, the GI50 is 3.77 µM and the TGI amounted to 25.5 µM.
Turning to `N#C/C(=C\c1ccc(Cl)cc1)n1nnc2cc(F)c(F)cc21`, the GI50 was 1.47 µM and the TGI was 3.23 µM.
In the case of `O=c1[nH]cnc2c1nnn2[C@@H]1O[C@H](CO)[C@@H](O)[C@H]1O`, the GI50 is 1.54 µM and the TGI was determined as 24.5 µM.
As to `O=S(=O)(NCCNc1cc(-c2cn(-c3ccccc3)nc2-c2cccc(O)c2)ccn1)c1ccc(F)cc1`, the GI50 was 1.88 µM and the TGI is 5.33 µM.
Consider `O=C(CSc1nc2sc3c(c2c(=O)n1-c1ccccc1)CCCCC3)N/N=C/c1ccc(F)cc1`, for which the GI50 is 2.35 µM and the TGI was 8.02 µM.
Take `CCOC(=O)c1ccc2[nH]c(Cc3[nH]c4ccc(C(=O)OCC)cc4c3C)c(C)c2c1`: the GI50 is 5.59 µM and the TGI worked out at 28.9 µM.
As for `CN1CCN(CCCOc2ccc3ncnc(Nc4ccc(Oc5cccc(C(F)(F)F)c5)c(Cl)c4)c3c2)CC1`, the GI50 was 1.07 µM and the TGI was 2.87 µM.
Consider `CCN(CC)CCCC(C)N/C(c1cccc(OC)c1)=c1\c(=O)[nH]n(-c2c3ccccc3nc3ccccc23)c(=O)\c1=C(/NC(C)CCCN(CC)CC)c1cccc(OC)c1` (stereo not given), for which the GI50 was 1.18 µM and the TGI is 3.09 µM.
The corresponding values for `Cc1ccc(-c2nc3nc(-c4ccc(Cl)cc4)nc(N4CCCNCC4)c3o2)cc1` are 1.78 µM and 3.42 µM.
For `Cc1cc(S(=O)(=O)/N=C(\N)n2nc(C)c(C)c2C)c(SCc2ccccc2)cc1Cl`, the GI50 is 12.1 µM and the TGI is 92.4 µM.
For `O=C(Nc1cccc(-c2nc3ccccc3[nH]2)c1)c1cccc(NC(=O)c2ccco2)c1`, the GI50 was 1.74 µM and the TGI is 3.99 µM.
With `Cc1cccc(Oc2ccc(Nc3ncnc4ccc(NC(=O)CN5CCN(C)CC5)cc34)cc2Cl)c1`, the GI50 was 0.448 µM and the TGI was 2.07 µM.
For `CCN(CC)CCCN1C(=O)c2c(c(C)c3c(oc4cc(O)ccc43)c2C)C1=O`, in that order: 1.57 µM and 3.13 µM.
For `C[C@]12CC[C@H](O)C[C@@H]1CC[C@@H]1[C@@H]2CC[C@@]2(C)[C@H]1CC[C@@H]2[C@](C)(O)CCc1ccc(F)cc1`, the GI50 is 2.44 µM and the TGI amounted to 28.2 µM.
For `C=C1C(=O)O[C@H]2[C@H]1CC/C(COC(=O)NCCc1c[nH]c3ccccc13)=C\CC[C@@]1(C)O[C@@H]21`, in that order: 1.38 µM and 4.32 µM.
As to `CNC(=O)c1ccc(Nc2nc(OC3CCCC3)c3c(-c4ccc5nc(C)oc5c4)c[nH]c3n2)c(OC)c1`, the GI50 is 0.424 µM and the TGI came to 27.6 µM.
Consider `Nc1nc(N)c2c(n1)NC(c1ccc(C(F)(F)F)cc1)CC(c1ccc(Nc3nc(NCCO)nc(Nc4ccc(Cl)cc4)n3)cc1)=N2` (stereo not given), for which the GI50 is 1.58 µM and the TGI was found to be 3.21 µM.
Take `COc1cc(N)ccc1Nc1c2ccccc2nc2ccccc12`: the GI50 is 11.8 µM and the TGI was 28.8 µM.
Consider `O=C1CN2CCC1C/C2=C\c1ccnc2c(Cl)cccc12` (stereo not given), for which the GI50 was 14.8 µM and the TGI came out at 57.9 µM.
For `C=C1C(=O)O[C@H]2[C@H]1CC/C(COC(=O)N[C@@H](Cc1c[nH]c3ccccc13)C(=O)OC)=C\CC[C@@]1(C)O[C@@H]21`, in that order: 1.23 µM and 3.05 µM.
As for `Fc1ccc(Nc2ccc3cc(OCCCN4CCOCC4)ccc3n2)cc1F`, the GI50 is 3.35 µM and the TGI was found to be 19.3 µM.
Turning to `CCC[C@H](Nc1nc(-c2ccc(NC(=O)NCC)c(OC)c2)ncc1C)c1cccnc1`, the GI50 is 0.0246 µM and the TGI is 0.0709 µM.
As for `C=C1C(=O)O[C@H]2[C@H]1CC/C(Cn1cc(Cn3ccc4cc(Cl)ccc43)nn1)=C\CC[C@@]1(C)O[C@@H]21`, the GI50 is 0.908 µM and the TGI came to 2.55 µM.
Take `O=C1CC(N2C(=O)/C(=C/C(Cl)=C\c3ccc([N+](=O)[O-])cc3)SC2=S)C(=O)N1c1ccc(Cl)cc1` (stereo not given): the GI50 is 1.33 µM and the TGI was determined as 3.1 µM.
On to `O=C1Nc2cc(OC(F)(F)F)ccc2Oc2ccc(-c3ccnc(N4CC[C@H](O)C4)c3)cc21`, for which the GI50 is 0.0129 µM and the TGI turned out to be 0.368 µM.
The corresponding values for `O=[N+]([O-])c1ccccc1/C=C/C=C1c2ccccc2-c2ccccc21` are 54.6 µM and > 100 µM.
Take `C[C@@H](Oc1cc(-c2cnn(C3CC4(CCNCC4)C3)c2)cnc1N)c1c(F)ccc(Cl)c1Cl`: the GI50 is 0.562 µM and the TGI came to 2.12 µM.
For `Cc1c(N(C(=O)c2cc(-c3cc(Cl)ccc3C(=O)N3Cc4ccccc4C[C@H]3CN3CCOCC3)n(C)c2C)c2ccc(O)cc2)cc(C#N)n1C`, the GI50 was 4.7 µM and the TGI came out at 25.2 µM.
`Cc1nn(-c2ccccc2)cc1/C=N/Nc1nc(Nc2ccccc2)nc(Nc2ccc(S(N)(=O)=O)cc2)n1`: the GI50 was 1.52 µM and the TGI was 3.27 µM.
Take `Cc1cc(Nc2nc(N3CCOCC3)nc3ccccc23)n[nH]1`: the GI50 is 4.36 µM and the TGI turned out to be 38.2 µM.
As to `Cc1c(N)nc([C@H](CC(N)=O)NC[C@H](N)C(N)=O)nc1C(=O)N[C@H](C(=O)N[C@H](C)[C@@H](O)[C@H](C)C(=O)N[C@H](C(=O)NCCc1nc(-c2nc(C(=O)NCCC[S+](C)C)cs2)cs1)[C@@H](C)O)C(OC1OC(CO)C(O)C(O)C1OC1OC(CO)C(O)C(OC(N)=O)C1O)c1cnc[nH]1` (stereo not given in full), the GI50 was 2.48 µM and the TGI was 15.3 µM.
With `Nc1c(C(=O)Nc2cccc3ccccc23)sc2nc3c(cc12)CCCCC3`, the GI50 is 0.231 µM and the TGI is > 50 µM.
As for `CC(=O)O[C@H]1C(=O)[C@@]2(C)[C@H]([C@H](OC(=O)c3ccccc3)[C@]3(O)C[C@H](OC(=O)[C@H](OC(=O)CCC(=O)OC4CCC(S/N=C(N)/N=C(\N)N(C)C)CC4)[C@@H](NC(=O)c4ccccc4)c4ccccc4)C(C)=C1C3(C)C)[C@]1(OC(C)=O)CO[C@@H]1C[C@@H]2O` (stereo not given in full), the GI50 is 0.00732 µM and the TGI was found to be 0.0433 µM.
For `Cc1cc(Nc2ncc(Cl)c(Nc3ccccc3S(=O)(=O)C(C)C)n2)c(OC(C)C)cc1C1CCNCC1`, the GI50 is 1.41 µM and the TGI worked out at 3.14 µM.
For `CN(C)c1ccc2[nH]c(O)c(C=Nc3ccc(S(N)(=O)=O)cc3)c2c1`, the GI50 is > 25 µM and the TGI is > 25 µM.
On to `C/C(=C\c1ccn(-c2ccc(N)cc2C(F)(F)F)n1)[C@@H]1C[C@@H]2O[C@]2(C)CCC[C@H](C)[C@H](O)[C@@H](C)C(=O)C(C)(C)[C@@H](O)CC(=O)O1`, for which the GI50 was 0.289 µM and the TGI amounted to 0.873 µM.
For the compound `COc1ccc(C(=O)c2ccc(OC)cc2OC)cc1`, the GI50 was 1.21 µM and the TGI was found to be 3.89 µM.
The corresponding values for `COc1cc(C(=O)O)ccc1NC(=O)[C@@H]1N[C@@H](CC(C)(C)C)[C@](C#N)(c2ccc(Cl)cc2F)[C@H]1c1cccc(Cl)c1F` are 5.12 µM and 16.2 µM.
On to `C[C@]12CC[C@H]3[C@@H](CC=C4C[C@@H](O)CC[C@@]43C)[C@@H]1C/C(=C\c1cccc(OCCCn3ccnc3)c1)[C@@H]2O`, for which the GI50 was 7.43 µM and the TGI was found to be 31.3 µM.
With `CN1CCN(Cc2ccc(NC(=O)c3[nH]ncc3Nc3ccnc4ccsc34)cc2)CC1`, the GI50 is 2.12 µM and the TGI was found to be 5.54 µM.
For `O=C(/C=C/C12c3ccccc3C(c3ccccc31)C1C(=O)NC(=O)C12)c1ccco1` (stereo not given), in that order: 2.2 µM and 4.93 µM.

The record behind these values is PubChem BioAssay (NCI).
